In brackets after ≈: the same amount, converted by molar mass.
Key:
Format in all cases: cell-based
[1] = test system: Staphylococcus aureus (methicillin-resistant and sensitive clinical isolates; ATCC29213); assay: MIC by micro broth dilution (CLSI), Staphylococcus aureus; settings: for MIC50 / MIC90: Clinical strain; for MIC50: read-out: MIC50; for MIC90: read-out: MIC90; for MIC: Standard strain ATCC29213, read-out: MIC
In short: (§1)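 In cation-adjusted Mueller-Hinton broth, 10^5 CFU/mL of bacteria met compound concentrations of 128 to 0.06 mg/L. Plates sat in air at 35±2° C for 20 hours.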

[2] = test system: Acinetobacter baumannii (carbapenem-resistant clinical isolates; ATCC19606); assay: MIC by micro broth dilution (CLSI), Acinetobacter baumannii; settings: Acinetobacter baumannii; for MIC50 / MIC90: ATCC19606, Clinical strain; for MIC50: read-out: MIC50; for MIC90: read-out: MIC90; for MIC: Standard strain ATCC19606, read-out: MIC
In short: as §1

[3] = test system: Bladder cancer cell line UM-UC-3; assay: Inhibitory activity on cancer cells, CellTiter-Glo viability, UM-UC-3; settings: Homo sapiens, UMUC3, 72 hours treatment
In short: (§2)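 HUVEC seeded at 2000, UM-UC-3 and RM-1 at 3000, LNCaP at 5000 cells/well, each in its own medium, 24 h before dosing. Compounds: 8-point 2.5-fold dilutions from 100 μmol, 72 h at 37 °C, 5% CO2. CellTiter-Glo luminescence; IC50 from growth-inhibition curves.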

[4] = test system: Prostate cancer cell line LNcaP; assay: Inhibitory activity on cancer cells, CellTiter-Glo viability, LNcaP; settings: Homo sapiens, 72 hours treatment
In short: as §2

[5] = test system: Endothelial cell line HUVEC; assay: Inhibitory activity on cells, CellTiter-Glo viability, HUVEC; settings: Homo sapiens, 72 hours treatment
In short: as §2

[6] = test system: Escherichia coli (carbapenem-resistant clinical isolate; ATCC25922); assay: MIC by micro broth dilution (CLSI), Escherichia coli; settings: Escherichia coli; for MIC50 / MIC90: ATCC25922, Clinical strain; for MIC50: read-out: MIC50; for MIC90: read-out: MIC90; for MIC: Standard strain ATCC25922, read-out: MIC
In short: as §1

[7] = test system: Mouse prostate cancer cell line RM1; assay: Inhibitory activity on cancer cells, CellTiter-Glo viability, RM1; settings: 72 hours treatment
In short: as §2

| Structure (SMILES) | MIC50 [1] [µg/mL] | MIC90 [1] [µg/mL] | MIC [1] [µg/mL] | MIC50 [2] [µg/mL] | MIC90 [2] [µg/mL] | MIC [2] [µg/mL] | IC50 [3] [µM] | IC50 [4] [µM] | IC50 [5] [µM] | MIC50 [6] [µg/mL] | MIC90 [6] [µg/mL] | MIC [6] [µg/mL] | IC50 [7] [µM] |
| --- | --- | --- | --- | --- | --- | --- | --- | --- | --- | --- | --- | --- | --- |
| O=[N+]([O-])c1cc(Cl)c2c(N3CCC(C(F)(F)F)CC3)ccnc2c1O [Example 39, 5-Chloro-7-nitro-4-(4-(trifluoromethyl)piperidin-1-yl)quinolin-8-ol] | 4 (≈ 10.6 µM) | 8 (≈ 21.3 µM) | 4 (≈ 10.6 µM) | > 128 | > 128 | > 128 | 0.95 | 0.43 | 1.11 | > 128 | > 128 | > 128 | 1.25 |
| CC(C)C(=O)N1CCN(c2ccnc3c(O)c([N+](=O)[O-])cc(Cl)c23)CC1 [Example 50, 4-(5-Chloro-8-hydroxy-7-nitroquinolin-4-yl)-1-(2,2-dimethylacetyl)piperazine] | > 128 | > 128 | > 128 | > 128 | > 128 | > 128 | 3.4 | 2.86 | 2.94 | > 128 | > 128 | > 128 | 4.29 |
| CS(=O)(=O)N1CCN(c2ccnc3c(O)c([N+](=O)[O-])cc(Cl)c23)CC1 [Example 48, 5-Chloro-4-(4-(methylsulfonyl)piperazin-1-yl)-7-nitroquinolin-8-ol] | 64 (≈ 165 µM) | 64 (≈ 165 µM) | 64 (≈ 165 µM) | > 128 | > 128 | > 128 | 10.6 | 10.6 | 6.58 | > 128 | > 128 | > 128 | 14.4 |
| O=[N+]([O-])c1ccc2c(Cl)c(C3CC3)cnc2c1O [Example 74, 4-chloro-3-cyclopropyl-7-nitroquinolin-8-ol] | 0.25 (≈ 0.945 µM) | 0.5 (≈ 1.89 µM) | 0.5 (≈ 1.89 µM) | 128 (≈ 484 µM) | 128 (≈ 484 µM) | 4 (≈ 15.1 µM) | 1.57 | 0.53 | 1.28 | 128 (≈ 484 µM) | 128 (≈ 484 µM) | > 128 | 7.64 |
| Cl.O=[N+]([O-])c1cc(Cl)c2c(-c3ccccc3)ccnc2c1O [Example 51, 5-chloro-7-nitro-4-phenylquinolin-8-ol hydrochloride] | 1 | 2 | 1 | > 128 | > 128 | > 128 | 2.17 | 1.51 | 1.71 | > 128 | > 128 | > 128 | 4.25 |
| O=[N+]([O-])c1cc(F)c2c(N3CCC(F)(F)CC3)ccnc2c1O [Example 69, 4-(4,4-Difluoropiperidin-1-yl)-5-fluoro-7-nitroquinolin-8-ol] | 2 (≈ 6.11 µM) | 2 (≈ 6.11 µM) | 4 (≈ 12.2 µM) | > 128 | > 128 | > 128 | 4.81 | 1.33 | 2.67 | > 128 | > 128 | > 128 | 2.23 |
| O=[N+]([O-])c1cc(F)c2c(OCC3CC3)ccnc2c1O [Example 72, 4-(Cyclopropylmethoxy)-5-fluoro-7-nitroquinolin-8-ol] | 2 (≈ 7.19 µM) | 4 (≈ 14.4 µM) | 2 (≈ 7.19 µM) | > 128 | > 128 | 64 (≈ 230 µM) | 6.28 | 1.89 | 2.65 | > 128 | > 128 | > 128 | 3.03 |
| O=[N+]([O-])c1ccc2c(-c3ccccc3)ccnc2c1O [Example 22, 4-Phenyl-7-nitroquinolin-8-ol] | 2 (≈ 7.51 µM) | 32 (≈ 120 µM) | 2 (≈ 7.51 µM) | 128 (≈ 481 µM) | > 128 | 128 (≈ 481 µM) | 1.99 | 2.31 | 1.46 | 128 (≈ 481 µM) | 128 (≈ 481 µM) | > 128 | 2.3 |
| O=[N+]([O-])c1ccc2c(F)ccnc2c1O [Example 27, 4-Fluoro-7-nitroquinolin-8-ol] | 64 (≈ 307 µM) | 64 (≈ 307 µM) | 64 (≈ 307 µM) | > 128 | > 128 | > 128 | 4.11 | 11.9 | 3.17 | 128 (≈ 615 µM) | > 128 | 64 (≈ 307 µM) | 13.2 |
| O=[N+]([O-])c1cc(Cl)c2c(N3CCNCC3)ccnc2c1O [Example 37, 5-Chloro-7-nitro-4-(piperazin-1-yl)quinolin-8-ol] | 128 (≈ 415 µM) | > 128 | 128 (≈ 415 µM) | > 128 | > 128 | > 128 | > 50 | 40.4 | > 50 | > 128 | > 128 | > 128 | > 50 |
| CNC(=O)N1CCN(c2ccnc3c(O)c([N+](=O)[O-])cc(Cl)c23)CC1 [Example 44, 4-(5-Chloro-8-hydroxy-7-nitroquinolin-4-yl)-N-methylpiperazine-1-carboxamide] | 32 (≈ 87.5 µM) | 32 (≈ 87.5 µM) | 32 (≈ 87.5 µM) | > 128 | > 128 | > 128 | > 50 | > 50 | > 50 | > 128 | > 128 | > 128 | > 50 |
| CN(C)CCOc1ccnc2c(O)c([N+](=O)[O-])ccc12 [Example 24, 4-(2-(Dimethylamino)ethoxy)-7-nitroquinolin-8-ol] | 128 (≈ 462 µM) | 128 (≈ 462 µM) | 128 (≈ 462 µM) | 128 (≈ 462 µM) | > 128 | 128 (≈ 462 µM) | 48 | 49.6 | > 100 | 128 (≈ 462 µM) | 128 (≈ 462 µM) | 128 (≈ 462 µM) | 53.6 |
| CN1CCN(c2ccnc3c(O)c([N+](=O)[O-])cc(Cl)c23)CC1 [Example 40] | 32 (≈ 99.1 µM) | 32 (≈ 99.1 µM) | 32 (≈ 99.1 µM) | 128 (≈ 397 µM) | > 128 | > 128 | 24.6 | 12.6 | 19.1 | 128 (≈ 397 µM) | > 128 | 64 (≈ 198 µM) | 11.5 |

From patent US20240246916A1, “7-NITRO-8-HYDROXYQUINOLINE DERIVATIVES, PREPARATION METHOD THEREFORE AND MEDICAL USE THEREOF” (Jiangsu Yahong Meditech Co., Ltd., priority 2021, published 2024)
